# Laboratory results as given in ChEMBL document CHEMBL1201862, “PubChem BioAssay data set” (2004).
#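 48-hour exposure; five concentrations; linearly interpolated endpoints. GI50 = concentration required for 50% inhibition of growth.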 The source made the active and inactive calls. Rule as the data show it: active = GI50 up to about 1.1 µM and inactive = higher.
# Assays:
# Assay in all cases: DTP human tumour cell line panel, 48 h
# [1] = system: MDA-MB-435
# [2] = system: SK-MEL-28
# [3] = system: NCI-H460
# [4] = system: HCC 2998
# [5] = system: MDA-MB-231
# [6] = system: SK-MEL-2
# [7] = system: SF-539
# [8] = system: UACC-257
# [9] = system: CCRF-CEM
# [10] = system: MDA-N
# [11] = system: MCF7
# [12] = system: SF-295
# [13] = system: OVCAR-8
# [14] = system: UACC-62
# [15] = system: 786-0
# [16] = system: SR
# [17] = system: COLO 205
# [18] = system: RPMI-8226
# [19] = system: SK-OV-3
# [20] = system: M14
SMILES,GI50 [1],GI50 [2],GI50 [3],GI50 [4],GI50 [5],GI50 [6],GI50 [7],GI50 [8],GI50 [9],GI50 [10],GI50 [11],GI50 [12],GI50 [13],GI50 [14],GI50 [15],GI50 [16],GI50 [17],GI50 [18],GI50 [19],GI50 [20]
CC1(C)NC2C(=O)c3c([nH]c4ccccc34)[C@]3(C)CCC1CC23 (some centres not stated),> 100 µM (inactive),> 100 µM (inactive),> 100 µM (inactive),> 100 µM (inactive),> 100 µM (inactive),> 100 µM (inactive),> 100 µM (inactive),> 100 µM (inactive),> 100 µM (inactive),> 100 µM (inactive),> 100 µM (inactive),> 100 µM (inactive),> 100 µM (inactive),> 100 µM (inactive),> 100 µM (inactive),55.2 µM (inactive),> 100 µM (inactive),82.8 µM (inactive),–,–
CC(C)(C)OC(=O)NCCC1CN(C(=O)c2ccccc2)c2ccccc21 (configuration not stated),27.6 µM (inactive),32.7 µM (inactive),22.9 µM (inactive),73.1 µM (inactive),40.1 µM (inactive),27.7 µM (inactive),–,26.9 µM (inactive),–,21.6 µM (inactive),28.2 µM (inactive),29.4 µM (inactive),25.6 µM (inactive),19 µM (inactive),35.3 µM (inactive),7.82 µM (inactive),19.7 µM (inactive),19.7 µM (inactive),> 100 µM (inactive),16.7 µM (inactive)
CCN(CC)C(=S)SNc1ccc(S(N)(=O)=O)cc1,> 57.7 µM (inactive),33.4 µM (inactive),38.7 µM (inactive),> 100 µM (inactive),60.5 µM (inactive),> 63.1 µM (inactive),> 76.6 µM (inactive),> 100 µM (inactive),–,69.3 µM (inactive),0.0383 µM (active),> 66.5 µM (inactive),23.3 µM (inactive),> 100 µM (inactive),29.9 µM (inactive),33.2 µM (inactive),68.7 µM (inactive),20.2 µM (inactive),> 100 µM (inactive),24.5 µM (inactive)
Brc1ccc(-c2[nH]c3ccccc3c2/C=N\Nc2ccc(-c3nc4ccccc4[nH]3)cc2)cc1,< 0.01 µM (active),–,< 0.01 µM (active),< 0.01 µM (active),< 0.01 µM (active),< 0.0139 µM (active),< 0.01 µM (active),3.17 µM (inactive),< 0.01 µM (active),< 0.01 µM (active),< 0.0171 µM (active),< 0.01 µM (active),< 0.01 µM (active),< 0.01 µM (active),< 0.01 µM (active),< 0.01 µM (active),< 0.01 µM (active),< 0.01 µM (active),< 0.01 µM (active),< 0.01 µM (active)
CC(C)n1c2c(c3ccccc3c1=O)C(=O)c1ccccc1-2,> 100 µM (inactive),> 100 µM (inactive),–,> 100 µM (inactive),> 100 µM (inactive),> 100 µM (inactive),> 100 µM (inactive),> 100 µM (inactive),> 100 µM (inactive),> 100 µM (inactive),> 100 µM (inactive),> 100 µM (inactive),> 100 µM (inactive),> 100 µM (inactive),> 100 µM (inactive),> 100 µM (inactive),> 100 µM (inactive),> 100 µM (inactive),> 100 µM (inactive),> 100 µM (inactive)
O=C(O)C1=NN(c2ccc(S(=O)(=O)O)cc2)C2(C1)C(Cl)C(=O)N2c1nc2ccccc2s1 (configuration not stated),16.2 µM (inactive),20.2 µM (inactive),16 µM (inactive),18.8 µM (inactive),19 µM (inactive),15.6 µM (inactive),4.4 µM (inactive),17.2 µM (inactive),–,21.4 µM (inactive),14.4 µM (inactive),15.6 µM (inactive),17.6 µM (inactive),14.4 µM (inactive),16.1 µM (inactive),7.82 µM (inactive),18.6 µM (inactive),13.1 µM (inactive),15.6 µM (inactive),15.7 µM (inactive)
Cc1ccc(S(=O)(=O)n2ccn3c(=O)cc(C)nc23)cc1,> 10 µM (inactive),> 10 µM (inactive),> 10 µM (inactive),–,> 10 µM (inactive),> 10 µM (inactive),> 10 µM (inactive),> 10 µM (inactive),> 10 µM (inactive),> 10 µM (inactive),> 10 µM (inactive),> 10 µM (inactive),> 10 µM (inactive),> 10 µM (inactive),> 10 µM (inactive),> 10 µM (inactive),> 10 µM (inactive),> 10 µM (inactive),> 10 µM (inactive),> 10 µM (inactive)
CC(=O)Nc1ccc(Cc2ccc3nc(O)cc(C)c3c2)cc1,> 100 µM (inactive),> 100 µM (inactive),62.1 µM (inactive),–,28.8 µM (inactive),22.2 µM (inactive),68.7 µM (inactive),67 µM (inactive),> 100 µM (inactive),> 100 µM (inactive),81.5 µM (inactive),29.9 µM (inactive),> 100 µM (inactive),31 µM (inactive),24.3 µM (inactive),> 100 µM (inactive),57.4 µM (inactive),17.2 µM (inactive),87.3 µM (inactive),> 100 µM (inactive)
COc1ccccc1/C=C/C1=NN(c2cccc(S(=O)(=O)O)c2)C2(C1)SCC(=O)N2c1nc2ccccc2s1 (configuration not stated),> 100 µM (inactive),> 100 µM (inactive),61.9 µM (inactive),60.3 µM (inactive),> 100 µM (inactive),> 100 µM (inactive),> 100 µM (inactive),97.7 µM (inactive),23 µM (inactive),> 100 µM (inactive),44.6 µM (inactive),–,53.2 µM (inactive),53.8 µM (inactive),> 100 µM (inactive),24.5 µM (inactive),67.8 µM (inactive),23.6 µM (inactive),–,> 100 µM (inactive)
O=C(CN1CCNCCN(CC(=O)N2CCCCC2)CCNCC1)N1CCCCC1,> 100 µM (inactive),> 100 µM (inactive),43 µM (inactive),–,> 100 µM (inactive),> 100 µM (inactive),> 100 µM (inactive),> 100 µM (inactive),52.4 µM (inactive),> 100 µM (inactive),> 100 µM (inactive),> 100 µM (inactive),> 100 µM (inactive),> 100 µM (inactive),43.6 µM (inactive),34.4 µM (inactive),> 100 µM (inactive),> 100 µM (inactive),> 100 µM (inactive),> 100 µM (inactive)
CC(=O)NNc1nc(-c2ccc([N+](=O)[O-])cc2)c(C#N)c(=O)n1C,50.6 µM (inactive),> 100 µM (inactive),> 100 µM (inactive),–,15.8 µM (inactive),> 100 µM (inactive),18.3 µM (inactive),> 100 µM (inactive),50.7 µM (inactive),86.7 µM (inactive),28.5 µM (inactive),47.5 µM (inactive),27 µM (inactive),66.8 µM (inactive),22.1 µM (inactive),13.9 µM (inactive),44.6 µM (inactive),21.1 µM (inactive),> 100 µM (inactive),> 100 µM (inactive)
O=C(/C=C/c1ccccc1)Oc1cccc(Br)c1,> 100 µM (inactive),> 100 µM (inactive),> 100 µM (inactive),35.7 µM (inactive),> 100 µM (inactive),> 100 µM (inactive),39.9 µM (inactive),> 100 µM (inactive),–,96.6 µM (inactive),20.5 µM (inactive),24.4 µM (inactive),60.4 µM (inactive),74 µM (inactive),> 100 µM (inactive),23.4 µM (inactive),64.1 µM (inactive),14.1 µM (inactive),> 100 µM (inactive),78.7 µM (inactive)
CC12CCC(C(Br)(Br)C1=O)C2(C)C (configuration not stated),0.0942 µM (active),0.826 µM (active),4.05 µM (inactive),2.28 µM (inactive),0.104 µM (active),–,2.94 µM (inactive),2.74 µM (inactive),< 0.0166 µM (active),0.196 µM (active),0.082 µM (active),3.49 µM (inactive),1.69 µM (inactive),0.682 µM (active),0.0545 µM (active),< 0.01 µM (active),3.01 µM (inactive),0.0759 µM (active),1.51 µM (inactive),0.125 µM (active)
O=C(NC(=O)c1cc(-c2ccccc2)n[nH]1)c1ccccc1,> 100 µM (inactive),> 100 µM (inactive),> 100 µM (inactive),> 100 µM (inactive),> 100 µM (inactive),> 100 µM (inactive),> 100 µM (inactive),> 100 µM (inactive),> 100 µM (inactive),> 100 µM (inactive),> 100 µM (inactive),> 100 µM (inactive),> 100 µM (inactive),> 100 µM (inactive),> 100 µM (inactive),24 µM (inactive),> 100 µM (inactive),–,> 100 µM (inactive),> 100 µM (inactive)
CN1CCCN(C)C1c1cc([N+](=O)[O-])ccc1O,31.2 µM (inactive),27.9 µM (inactive),30.1 µM (inactive),–,24.9 µM (inactive),31 µM (inactive),25.2 µM (inactive),19 µM (inactive),22 µM (inactive),40.7 µM (inactive),19.8 µM (inactive),37.3 µM (inactive),35.6 µM (inactive),16.6 µM (inactive),33 µM (inactive),21.6 µM (inactive),56.1 µM (inactive),31 µM (inactive),34.1 µM (inactive),19.1 µM (inactive)
